Assay [1] relates to lipid peroxide radical production. Briefly: Lipid peroxide radical production inhibition test. Type of assay: cell-based, Staphylococcus aureus 3A. As to conditions: for Growth of bacteria: 37° C., 30 minutes.
The next assay deals with spleen lymphocytes. In words: Lymphocyte activation inhibition test. Type of assay: cell-based, mouse. As to conditions: 3H-thymidine uptake. An excerpt:
A ddY mouse (female, 7 weeks old, weighing about 25 g) was purchased from Nippon SLC and pre-bred for 1 week before using in experiments. A spleen was taken out from the mouse, finely minced and suspended in RPMI-1640 medium containing 10% fetal bovine serum (HyClone) to obtain a single cell suspension. Adhesive cells adhered to a plastic Petri dish were removed and non-adhesive cells were used as spleen lymphocytes. The spleen lymphocytes were suspended in RPMI 1640 medium containing 10% fetal bovine serum at a concentration of 2×10^6/ml. 200 μl of the suspension was seeded into each well of a 96-well microtiter plate. DGE at a varying concentration was added to each well other than the control well. Furthermore, 5 μg of Con A (Nacalai Tesque) was added to each well. The plate was incubated at 37° C. for two days in the presence of 5% CO2. 37 kBq of ^3H-thymidine (Daiichi Pure Chemicals) was added to each well to pulse-label the cells on the day before the completion of the cultivation. After cultivation, the cells were harvested on a glass filter to measure the radioactivity.

In assay [2] the target is T1, α-glucosidase from rat small intestine mucous membrane (Rattus norvegicus, UniProt P23739).
T1 construct: relative activity; other: substrate Sucrose, DGE 0.2 mM; control without DGE = 100%; relative activity; other: substrate Sucrose, DGE 0.5 mM; other: substrate Sucrose, DGE 1.0 mM; other: substrate Sucrose, DGE 2.0 mM; other: for sucrose, Dixon
T1 sequence (P23739 whole entry): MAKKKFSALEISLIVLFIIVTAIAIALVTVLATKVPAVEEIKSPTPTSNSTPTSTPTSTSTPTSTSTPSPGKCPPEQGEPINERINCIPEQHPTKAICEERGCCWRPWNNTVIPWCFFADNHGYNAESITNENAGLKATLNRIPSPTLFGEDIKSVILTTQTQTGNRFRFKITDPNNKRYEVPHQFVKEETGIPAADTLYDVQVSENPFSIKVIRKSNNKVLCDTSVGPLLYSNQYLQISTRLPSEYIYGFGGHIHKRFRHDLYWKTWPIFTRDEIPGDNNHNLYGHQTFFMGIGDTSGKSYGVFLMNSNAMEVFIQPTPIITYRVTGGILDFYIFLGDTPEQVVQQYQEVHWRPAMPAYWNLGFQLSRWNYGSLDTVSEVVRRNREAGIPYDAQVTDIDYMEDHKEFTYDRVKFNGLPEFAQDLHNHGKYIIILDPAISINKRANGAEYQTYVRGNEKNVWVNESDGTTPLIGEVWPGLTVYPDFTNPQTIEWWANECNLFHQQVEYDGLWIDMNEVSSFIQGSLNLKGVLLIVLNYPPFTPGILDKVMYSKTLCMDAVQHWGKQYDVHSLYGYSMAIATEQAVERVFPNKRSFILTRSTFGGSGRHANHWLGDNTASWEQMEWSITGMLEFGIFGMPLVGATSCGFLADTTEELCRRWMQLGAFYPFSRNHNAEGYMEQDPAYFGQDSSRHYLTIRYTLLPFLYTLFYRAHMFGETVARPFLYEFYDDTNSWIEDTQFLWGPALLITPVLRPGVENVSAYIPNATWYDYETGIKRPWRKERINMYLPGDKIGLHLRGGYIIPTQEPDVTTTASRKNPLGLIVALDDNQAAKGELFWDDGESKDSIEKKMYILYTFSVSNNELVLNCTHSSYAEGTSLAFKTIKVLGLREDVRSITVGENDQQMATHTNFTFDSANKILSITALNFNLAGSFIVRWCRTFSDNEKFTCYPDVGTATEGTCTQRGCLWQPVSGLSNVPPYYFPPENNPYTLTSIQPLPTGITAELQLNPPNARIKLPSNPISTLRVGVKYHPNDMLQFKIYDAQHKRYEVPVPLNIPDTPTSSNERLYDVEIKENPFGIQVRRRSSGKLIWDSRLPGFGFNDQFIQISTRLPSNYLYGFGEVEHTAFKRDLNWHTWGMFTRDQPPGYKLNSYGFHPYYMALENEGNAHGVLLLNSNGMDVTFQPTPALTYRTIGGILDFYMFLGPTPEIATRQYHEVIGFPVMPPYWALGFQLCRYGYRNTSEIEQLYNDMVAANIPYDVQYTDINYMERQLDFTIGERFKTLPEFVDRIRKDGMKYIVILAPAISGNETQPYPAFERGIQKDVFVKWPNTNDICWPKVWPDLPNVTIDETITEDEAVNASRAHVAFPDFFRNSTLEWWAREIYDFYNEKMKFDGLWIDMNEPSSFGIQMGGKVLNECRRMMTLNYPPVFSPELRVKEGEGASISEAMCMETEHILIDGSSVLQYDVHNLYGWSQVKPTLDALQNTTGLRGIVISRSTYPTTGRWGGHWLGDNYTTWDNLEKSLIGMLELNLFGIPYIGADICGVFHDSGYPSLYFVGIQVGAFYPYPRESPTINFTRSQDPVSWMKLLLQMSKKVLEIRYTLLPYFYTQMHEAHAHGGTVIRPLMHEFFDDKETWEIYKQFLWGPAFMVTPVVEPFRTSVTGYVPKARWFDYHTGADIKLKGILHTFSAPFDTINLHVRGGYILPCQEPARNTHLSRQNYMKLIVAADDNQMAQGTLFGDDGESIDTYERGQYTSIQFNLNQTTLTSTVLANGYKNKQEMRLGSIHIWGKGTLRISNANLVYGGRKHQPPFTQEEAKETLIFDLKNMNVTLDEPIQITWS
Briefly: α-Glucosidase inhibition test (crude enzyme from rat small intestine). Type of assay: biochemical. To be noted: for relative activity: substrate Sucrose, control without DGE = 100%. As for the experimental part: (2) A crude enzyme preparation of α-glucosidase from rat small intestine mucous membrane [prepared according to the method as described in Arne Dahlqvist, Anal. Biochem., 7:18-25 (1964)] was used to measure the activity of inhibiting α-glucosidase of DGE as follows.
For the enzymatic reaction, 80 μl of a solution of sucrose, maltose, treharose or soluble starch as a substrate in 10 mM phosphate buffer (pH 7.0) buffer at a final concentration of 100 mM (0.5% for soluble starch) was added to 10 μl of a test sample solution appropriately diluted with the same buffer. 10 μl of the crude enzyme solution prepared from rat small intestine was added thereto. The mixture was reacted at 37° C. for 20 minutes.
The enzymatic reaction was assessed by adding 3 ml of a reagent for glucose measurement (Wako Pure Chemical Industries) to the reaction mixture, reacting at 37° C. for 5 minutes and then measuring the absorbance at 505 nm as the glucose content in the mixture.
The inhibitory activity of DGE on the digestion of each substrate by α-glycosidase was measured using DGE at four different concentrations according to the above-mentioned method. The activity of inhibiting α-glycosidase was expressed as a relative activity (%) defining the activity of the control without DGE as 100%.

The subject of another assay is human IL-1α. Briefly: Cytokine production from DSEK cells (ELISA). It is filed as cell-based. To be noted: DSEK culture supernatant at 24 or 72 hours. As for the experimental part:
(§1) 150 μl/well of culture supernatant was recovered from the DSEK cell culture at 24 or 72 hours. The effects of DGE on the production (expression) of cytokines (human TGF-β, human FGF-β, human IL-1α and human IL-10) from the cell were determined using ELISA kits specific for the respective cytokines (from Intergen for human FGF-β and human IL-10; and from Promega for human IL-1α and human TGF-β).
On the technique in general: ELISA stands for enzyme-linked immunosorbent assay.

A further assay relates to human TGF-β. Briefly: Cytokine production from DSEK cells (ELISA). Type of assay: cell-based. To be noted: DSEK culture supernatant at 24 or 72 hours. As for the experimental part:
as §1

A further assay relates to human FGF-β. In words: Cytokine production from DSEK cells (ELISA). Type of assay: cell-based. To be noted: DSEK culture supernatant at 24 or 72 hours. As for the experimental part:
as §1

The subject of the next assay is human IL-10. Briefly: Cytokine production from DSEK cells (ELISA). Type of assay: cell-based. As to conditions: DSEK culture supernatant at 24 or 72 hours. As for the experimental part: as §1
Another assay concerns HL-60 cells. Briefly: Antiproliferation activity against tumor cells (MTT, absorbance at 590 nm). It is filed as cell-based. As for the experimental part: The Samples 1 to 3 were separately sterilized by filtration and appropriately diluted with sterile water. 10 μl of each dilution was placed in a well of a 96-well microtiter plate. 90 μl of RPMI 1640 medium (Nissui) containing 10% fetal bovine serum (Gibco), which had been treated at 56° C. for 30 minutes, and 5,000 HL-60 cells (ATCC CCL-240) was added thereto. The plate was incubated at 37° C. for 48 hours in the presence of 5% CO2. The cell morphology was examined under an optical microscope. 10 μl of 5 mg/ml 3-(4,5-dimethylthiazol-2-yl)-2,5-diphenyltetrazolium bromide (Sigma) solution in phosphate buffered saline was further added thereto and the incubation was continued for additional 4 hours. 100 μl of 2-propanol containing 0.04 N HCl was added to the well and the mixture was thoroughly stirred. The absorbance at 590 nm was measured to determine the cell growth level.

Broadly, the Ki is a dissociation constant, usually derived from enzyme kinetics or from competition with a known ligand. As for `O=C1C=CC(CO)OC1O` [DGE, L-glycero-1,5-epoxy-1αβ,6-dihydroxy-cis-hex-3-en-2-one], the “activity of inhibiting lipid peroxide radical production” value in assay [1] was “exhibited an activity of inhibiting lipid peroxide radical production”. Moreover, the results for the Growth of bacteria result in assay [1] (DGE 1 mM in the reaction mixture with tert-butyl hydroperoxide) and in assay [1] (DGE 10 mN in the reaction mixture with tert-butyl hydroperoxide) were “−” and “+”, respectively. The “inhibitory activity against lymphocyte proliferation activated by stimulation with mitogen” value with spleen lymphocytes (Con A) is given as “in a dose-dependent manner”. Besides, in the assay on spleen lymphocytes (Con A-stimulated spleen lymphocytes), the “concentration that almost completely inhibits the proliferation” value is 0.3 µg/mL. The “activity of inhibiting α-glycosidase with sucrose as a substrate compared with maltose or the like” value in assay [2] is “exhibited a higher activity of inhibiting α-glycosidase”. The Ki in assay [2] (for sucrose, Dixon plot, read-out: inhibition constant (Ki)) is 6 mM. For the same molecule, the relative activity is on record as 91% in assay [2] (DGE 0.2 mM), 92% in assay [2] (DGE 0.5 mM), 83% in assay [2] (DGE 1.0 mM) and 71% in assay [2] (DGE 2.0 mM). Further, the “production of human IL-1α” value in the assay with human IL-1α is listed as “inhibiting the production”. For the same molecule, in the assay on human TGF-β, the “production of human TGF-β” value is “enhancing the production”. Moreover, the “production of human FGF-β” value in the assay on human FGF-β was “inhibiting the production”. In addition, the “production of human IL-10” value with human IL-10 was “enhancing the production”.

Take “5-L-glutathion-S-yl-2-hydroxy-3,7-dioxabicyclo[2.2.2]octan-1-ol [DGE-GSH]”: the “antiproliferation activity against tumor cells” value with HL-60 cells (48 hours, absorbance at 590 nm) is reported as “inhibition of cell growth”. In addition, the “GI50, the concentration that results in 50% growth inhibition” value in the assay on HL-60 cells (half absorbance at 590 nm compared with water control) is given as “about 48.7 μg/ml”. The “formation of apoptotic bodies” value with HL-60 cells (optical microscope) is given as “apoptotic bodies were observed”.

Source of the values: patent US6531148B1, “Therapeutic agents” (Takara Shuzo Co., Ltd., priority 1998, dated 2003).
